Assay results from PubChem BioAssay (NCI).
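Dose response: 5 concentrations. Exposure: 48 h. Format: 96-well plates. Endpoint: linear interpolation; highest concentration if not reached. At the GI50, growth is halved. Definition used: TGI = concentration required for complete inhibition of growth.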

What was measured:
Experiment in all cases: NCI anticancer screen, dose series, 48 h
SK-MEL-5 melanoma = system: SK-MEL-5 melanoma
M14 melanoma = system: M14 melanoma
SW-620 colon = system: SW-620 colon
SN12C renal = system: SN12C renal
KM12 colon = system: KM12 colon
HCT-15 colon = system: HCT-15 colon
RPMI-8226 leukemia = system: RPMI-8226 leukemia
NCI-H23 lung = system: NCI-H23 lung
PC-3 prostate = system: PC-3 prostate
K-562 leukemia = system: K-562 leukemia
SK-OV-3 ovarian = system: SK-OV-3 ovarian
OVCAR-3 ovarian = system: OVCAR-3 ovarian
HL-60(TB) leukemia = system: HL-60(TB) leukemia
MOLT-4 leukemia = system: MOLT-4 leukemia
T-47D breast = system: T-47D breast
ACHN renal = system: ACHN renal
SNB-19 CNS = system: SNB-19 CNS
SNB-75 CNS = system: SNB-75 CNS
HOP-92 NSCLC = system: HOP-92 NSCLC
NCI/ADR-RES ovarian = system: NCI/ADR-RES ovarian
A549 NSCLC = system: A549 NSCLC
DU-145 prostate = system: DU-145 prostate
HOP-62 NSCLC = system: HOP-62 NSCLC
HCC-2998 colon = system: HCC-2998 colon
HCT-116 colon = system: HCT-116 colon
UACC-62 melanoma = system: UACC-62 melanoma
UACC-257 melanoma = system: UACC-257 melanoma
MALME-3M melanoma = system: MALME-3M melanoma
BT-549 breast = system: BT-549 breast
UO-31 renal = system: UO-31 renal
MDA-MB-435 = system: MDA-MB-435
OVCAR-4 ovarian = system: OVCAR-4 ovarian
NCI-H522 lung = system: NCI-H522 lung
786-0 renal = system: 786-0 renal
MDA-MB-231 breast = system: MDA-MB-231 breast
TK-10 renal = system: TK-10 renal
A498 renal = system: A498 renal
EKVX NSCLC = system: EKVX NSCLC
IGROV1 ovarian = system: IGROV1 ovarian
RXF 393 renal = system: RXF 393 renal
U251 CNS = system: U251 CNS
SR leukemia = system: SR leukemia
SF-268 CNS = system: SF-268 CNS
HT29 colon = system: HT29 colon
NCI-H226 lung = system: NCI-H226 lung
SF-539 CNS = system: SF-539 CNS
MCF7 breast = system: MCF7 breast
CCRF-CEM leukemia = system: CCRF-CEM leukemia
COLO 205 colon = system: COLO 205 colon
OVCAR-5 ovarian = system: OVCAR-5 ovarian
OVCAR-8 ovarian = system: OVCAR-8 ovarian
HS 578T breast = system: HS 578T breast
SK-MEL-28 melanoma = system: SK-MEL-28 melanoma
LOX IMVI melanoma = system: LOX IMVI melanoma
NCI-H460 lung = system: NCI-H460 lung
SF-295 CNS = system: SF-295 CNS

Compound: CC/C(=C(\c1ccc(Cl)cc1)c1ccc(OCCN2CCCCC2)cc1)c1ccc(O)cc1
- GI50 (SK-MEL-5 melanoma): 1680 nM
- TGI (SK-MEL-5 melanoma): 3040 nM
- GI50 (M14 melanoma): 1880 nM
- TGI (M14 melanoma): 3770 nM
- GI50 (SW-620 colon): 1750 nM
- TGI (SW-620 colon): 3420 nM
- GI50 (SN12C renal): 1690 nM
- TGI (SN12C renal): 3230 nM
- GI50 (KM12 colon): 1900 nM
- TGI (KM12 colon): 3740 nM
- GI50 (HCT-15 colon): 1610 nM
- TGI (HCT-15 colon): 3150 nM
- GI50 (RPMI-8226 leukemia): 1860 nM
- TGI (RPMI-8226 leukemia): 4100 nM
- GI50 (NCI-H23 lung): 1880 nM
- TGI (NCI-H23 lung): 3840 nM
- GI50 (PC-3 prostate): 1660 nM
- TGI (PC-3 prostate): 3360 nM
- GI50 (K-562 leukemia): 1600 nM
- TGI (K-562 leukemia): 4620 nM
- GI50 (SK-OV-3 ovarian): 2010 nM
- TGI (SK-OV-3 ovarian): 4880 nM
- GI50 (OVCAR-3 ovarian): 1910 nM
- TGI (OVCAR-3 ovarian): 3630 nM
- GI50 (HL-60(TB) leukemia): 1910 nM
- TGI (HL-60(TB) leukemia): 4170 nM
- GI50 (MOLT-4 leukemia): 1760 nM
- TGI (MOLT-4 leukemia): 4430 nM
- GI50 (T-47D breast): 1220 nM
- TGI (T-47D breast): 3830 nM
- GI50 (ACHN renal): 1700 nM
- TGI (ACHN renal): 3080 nM
- GI50 (SNB-19 CNS): 1900 nM
- TGI (SNB-19 CNS): 3540 nM
- GI50 (SNB-75 CNS): 1490 nM
- TGI (SNB-75 CNS): 3640 nM
- GI50 (HOP-92 NSCLC): 1500 nM
- TGI (HOP-92 NSCLC): 3200 nM
- GI50 (NCI/ADR-RES ovarian): 1750 nM
- TGI (NCI/ADR-RES ovarian): 3800 nM
- GI50 (A549 NSCLC): 1810 nM
- TGI (A549 NSCLC): 3700 nM
- GI50 (DU-145 prostate): 1870 nM
- TGI (DU-145 prostate): 3580 nM
- GI50 (HOP-62 NSCLC): 1770 nM
- TGI (HOP-62 NSCLC): 3480 nM
- GI50 (HCC-2998 colon): 1850 nM
- TGI (HCC-2998 colon): 3460 nM
- GI50 (HCT-116 colon): 1980 nM
- TGI (HCT-116 colon): 4260 nM
- GI50 (UACC-62 melanoma): 1710 nM
- TGI (UACC-62 melanoma): 3250 nM
- GI50 (UACC-257 melanoma): 1830 nM
- TGI (UACC-257 melanoma): 3940 nM
- GI50 (MALME-3M melanoma): 1750 nM
- TGI (MALME-3M melanoma): 3330 nM
- GI50 (BT-549 breast): 2060 nM
- TGI (BT-549 breast): 4200 nM
- GI50 (UO-31 renal): 1370 nM
- TGI (UO-31 renal): 2660 nM
- GI50 (MDA-MB-435): 1720 nM
- TGI (MDA-MB-435): 3200 nM
- GI50 (OVCAR-4 ovarian): 1970 nM
- TGI (OVCAR-4 ovarian): 4350 nM
- GI50 (NCI-H522 lung): 2010 nM
- TGI (NCI-H522 lung): 4440 nM
- GI50 (786-0 renal): 1810 nM
- TGI (786-0 renal): 3430 nM
- GI50 (MDA-MB-231 breast): 1810 nM
- TGI (MDA-MB-231 breast): 3290 nM
- GI50 (TK-10 renal): 1960 nM
- TGI (TK-10 renal): 4580 nM
- GI50 (A498 renal): 3310 nM
- TGI (A498 renal): 16500 nM
- GI50 (EKVX NSCLC): 1910 nM
- TGI (EKVX NSCLC): 4350 nM
- GI50 (IGROV1 ovarian): 1910 nM
- TGI (IGROV1 ovarian): 3940 nM
- GI50 (RXF 393 renal): 1450 nM
- TGI (RXF 393 renal): 2920 nM
- GI50 (U251 CNS): 1600 nM
- TGI (U251 CNS): 3160 nM
- GI50 (SR leukemia): 1900 nM
- TGI (SR leukemia): 4510 nM
- GI50 (SF-268 CNS): 1750 nM
- TGI (SF-268 CNS): 3800 nM
- GI50 (HT29 colon): 2190 nM
- TGI (HT29 colon): 5090 nM
- GI50 (NCI-H226 lung): 1850 nM
- TGI (NCI-H226 lung): 4340 nM
- GI50 (SF-539 CNS): 1700 nM
- TGI (SF-539 CNS): 3110 nM
- GI50 (MCF7 breast): 62.2 nM
- TGI (MCF7 breast): 2630 nM
- GI50 (CCRF-CEM leukemia): 1910 nM
- TGI (CCRF-CEM leukemia): 4930 nM
- GI50 (COLO 205 colon): 1820 nM
- TGI (COLO 205 colon): 3860 nM
- GI50 (OVCAR-5 ovarian): 1860 nM
- TGI (OVCAR-5 ovarian): 4040 nM
- GI50 (OVCAR-8 ovarian): 2110 nM
- TGI (OVCAR-8 ovarian): 5200 nM
- GI50 (HS 578T breast): 1780 nM
- TGI (HS 578T breast): 4510 nM
- GI50 (SK-MEL-28 melanoma): 1770 nM
- TGI (SK-MEL-28 melanoma): 3330 nM
- GI50 (LOX IMVI melanoma): 1670 nM
- TGI (LOX IMVI melanoma): 3030 nM
- GI50 (NCI-H460 lung): 1820 nM
- TGI (NCI-H460 lung): 3370 nM
- GI50 (SF-295 CNS): 1720 nM
- TGI (SF-295 CNS): 3130 nM
